Laboratory results published in patent publication US7582786B2, “Synthetic catalytic free radical scavengers useful as antioxidants for prevention and therapy of disease” (Eukarion Inc., priority 1996, dated 2009).

Tests used:
[1] = tested on: isolated iron-overloaded rat hearts; experiment: Isolated iron-overloaded rat hearts submitted to ischemia and reperfusion (function and electron microscopy)
Experimental: Rats received an intramuscular injection of 0.25 ml of an iron-dextran solution (100 g iron hydroxide, 99 g dextran, water up to 1 l) every third day during a 5-week period to achieve a significant iron overload in cardiac tissue. At the end of this treatment, rats were anesthetized with sodium pentobarbital (40 mg/kg) and heparin (1,000 IU/kg) was administered via a femoral vein. Hearts were then removed and rapidly perfused through the aorta according to the technique described by Langendorff [Langendorff, O., Pflügers Arch. 61: 291, 1895] at a constant flow rate of 11 ml/minute. The perfusion fluid was a modified Krebs-Henseleit buffer containing (in mmol/l): NaCl 118, KCl 5.9, NaHCO3 25, MgCl2 1.2, NaH2PO4 0.6, CaCl2 2.4, Glucose […]. pH was maintained at 7.4±0.05 when the perfusion medium was saturated with O2—CO2 (95%-5%) at 37° C. The perfusion apparatus was fully thermostated such that the temperature of the perfusion medium was 37.0±0.5° C. when it reached the aorta. An ultra-thin balloon was inserted in the left ventricle immediately after the initiation of aortic perfusion and was inflated so as to obtain an end-diastolic pressure of 5 mm Hg. A 15 minute stabilization period was initiated immediately following balloon placement. At the end of this period, systolic and diastolic ventricular pressures and heart beat rate (HR) were recorded through a pressure transducer linked to the ventricular balloon. Left Ventricular Developed Pressure (LVDP) was calculated by the difference between systolic and diastolic pressure and the product HR×LVDP was taken as an index of oxygen consumption. Hearts were then subjected to a 15 minute total global normothermic ischemia, followed by 15 minutes of reperfusion with the perfusion medium used initially. During this 15 minute reperfusion, heart rate, and diastolic and systolic pressures were monitored. Early ventricular fibrillations were analyzed 1 min. after the start of the reperfusion.
Three experimental groups were studied.
After the 15 minute reperfusion, 3 hearts in each group were prepared for electron microscopy by perfusion with 2.5% glutaraldehyde. Ultra-thin slices (500-600 Å thickness) were examined.
Mitochondria were classified into Type A (normal), Type B (swollen, unbroken), and Type C (ruptured membranes). Sarcomeres were classified into Type A (normal) and Type B (contacted and/or necrosis). The results are expressed as percentages.

[2] = In vitro model for acidosis-induced mucosal injury
mice = experiment: Mouse model for delayed hypersensitivity (oxazolone, ear edema); assay type: in vivo; details: topical, 2.5 micrograms C7 per ear
Experimental: Mice (“Presensitized” and “Presensitized+C7” groups) were presensitized with oxazolone on the abdomen. One group (“Not presensitized”) received only vehicle on the abdomen at this time. After 7 days, each mouse was challenged with the oxazolone hapten on one ear and given vehicle only on the opposite ear. […] The other two groups received an equivalent volume of 90% acetone. Twenty-four hr after challenge, mice were sacrificed and ear edema was assessed by determining the wet weight/dry weight ratio. (Wet weight was determined by weighing the freshly dissected ear and dry weight was determined after lyophilization to a constant weight.)
Mice (“Presensitized” and “Presensitized+C7” groups) were presensitized with oxazolone on the abdomen. One group (“Not presensitized”) received only vehicle on the abdomen at this time. After 7 days, each mouse were challenged with the oxazolone hapten on one ear and given vehicle only on the opposite ear. […] The other two groups received an equivalent volume of 90% acetone. Twenty-four hr after challenge, mice were sacrificed and ear edema was assessed by determining the wet weight/dry weight ratio. (Wet weight was determined by weighing the freshly dissected ear and dry weight was determined after lyophilization to a constant weight.)

Rat brain slices = experiment: Rat brain slice ischemia/reoxygenation EPSP system; assay type: cell-based; details: 50 μM C7
Experimental: A widely used assay to determine the therapeutic potential of molecules in brain ischemia (stroke) consists of evaluating their ability to prevent irreversible damage induced by an anoxic episode in brain slices maintained under physiological conditions. Rat brain slices were maintained at 35° C. in an interface chamber in an artificial cerebrospinal fluid containing: 124 mM NaCl, 3 mM KCl, 1.25 mM KH2PO4, 3 mM CaCl, 1 mM MgCl2, 26 mM NaHCO3, 10 mM D-glucose, and 2 mM L-ascorbate, continuously gassed with a mixture of O2:CO2 (95:5). The atmosphere of the chamber was also continuously gased with the mixture of O2:CO2 (95:5), except during the-anoxic episode when it was replaced by N2. Axons were electrically stimulated and the evoked excitatory post-synaptic potentials (EPSPs) were recorded using microelectrodes.
The extent of permanent damage can be quantified by measuring both the amplitude (in mV) and the initial slope (in mV/msec) of the EPSP.
After 5 minutes of baseline recording, O2 was replaced by N2 for an average of 5 minutes. O2 was then reintroduced and recording was continued for another 50 minutes. […] In contrast, recovery in untreated brain slices was only about 40% of pre-ischemia levels.
As an additional assessment of efficacy, the percentage of viable slices following repeated ischemic episodes was evaluated. […]

MRL/lpr mice = experiment: Lifespan of autoimmune MRL/lpr mice; assay type: in vivo; details: 1 mg/mouse intraperitoneally three times per week
Description: MRL/lpr mice develop autoantibodies and numerous autoimmune associated pathologies and die prematurely (mean lifespan ˜150 days). They are considered a mouse model for autoimmune disorders such as lupus. […] Control mice received vehicle injections only or were left untreated.
MRL/lpr mice develop autoantibodies and numerous autoimmune associated pathologies and die prematurely (mean lifespan˜150 days). They are considered a mouse model for autoimmune disorders such as lupus. […] Control mice received vehicle injections only or were left untreated.

[3] = 1 minute after reperfusion, DMTU 10 mM, C7 50 μM
[4] = 15 minutes after reperfusion, DMTU 10 mM, C7 50 μM
[5] = Before ischemia, DMTU 10 mM, C7 50 μM
[6] = electron microscopy after 15 minute reperfusion

## [Cl][Mn]1[O]c2ccccc2C=NCCN=Cc2ccccc2[O]1 [Compound C7]
[1]; [3]
  DP: 5.8 ± 0.5#± mm Hg
  HR: 130 ± 13 beats/min
  HR × LVDP: 9.9 ± 0.8#± ×10.3
  SP: 72 ± 8 mm Hg
  VF, number of hearts exhibiting episodes of ventricular fibrillation: 2/8
[1]; [4]
  DP: 8.3 ± 0.6 mm Hg
  HR: 241 ± 15 beats/min
  SP: 92 ± 15 mm Hg
[1]; [5]
  DP: 5.4 ± 0.3 mm Hg
  HR: 278 ± 7 beats/min
  HR × LVDP: 23.5 ± 0.9 ×10.3
  SP: 90 ± 2 mm Hg
[1]; C7 50 μM
  protection of hearts from ischemia/reoxygenation damage: effectively protected hearts
[1]; [6]
  Mitochondria Type A (normal): 31.0#± %
  Mitochondria Type C (ruptured membranes): 53.8#± %
  Sarcomeres Type A (normal): 60.6#± %
  Sarcomeres Type B (contacted and/or necrosis): 39.4#± %
[2]
  protection against acidosis-induced mucosal injury: protective
mice
  protection, ear edema: protective
Rat brain slices
  percentage of viable slices following repeated ischemic episodes: 70%
MRL/lpr mice
  lifespan: prolongs the life
